Reference: publication PMC12678337, “EAR-20 peptide, a novel NMDA receptor positive allosteric modulator” (Frontiers in Pharmacology, 2025)
Values joined by “and” are separate entries in the source; they are usually repeats but may differ in a detail not shown here. Equal entries are not always repeated. No end group written: not given here.

Legend:
GluN1-GluN2D = biological target: T1, GluN1-GluN2D (Rattus norvegicus, UniProt P35439+Q62645); type: cell-based
T1 construct: HA (N); expressed in transfected cells; host or cells: HEK-293T

GluN1-GluN2B [1] = biological target: T2, GluN1-GluN2B (Rattus norvegicus, UniProt P35439+Q00960); assay: cell-based
T2 construct: GFP (N); expressed in transfected cells; host or cells: HEK-293T
T2 sequence (Q00960 27-1482, other chains not shown): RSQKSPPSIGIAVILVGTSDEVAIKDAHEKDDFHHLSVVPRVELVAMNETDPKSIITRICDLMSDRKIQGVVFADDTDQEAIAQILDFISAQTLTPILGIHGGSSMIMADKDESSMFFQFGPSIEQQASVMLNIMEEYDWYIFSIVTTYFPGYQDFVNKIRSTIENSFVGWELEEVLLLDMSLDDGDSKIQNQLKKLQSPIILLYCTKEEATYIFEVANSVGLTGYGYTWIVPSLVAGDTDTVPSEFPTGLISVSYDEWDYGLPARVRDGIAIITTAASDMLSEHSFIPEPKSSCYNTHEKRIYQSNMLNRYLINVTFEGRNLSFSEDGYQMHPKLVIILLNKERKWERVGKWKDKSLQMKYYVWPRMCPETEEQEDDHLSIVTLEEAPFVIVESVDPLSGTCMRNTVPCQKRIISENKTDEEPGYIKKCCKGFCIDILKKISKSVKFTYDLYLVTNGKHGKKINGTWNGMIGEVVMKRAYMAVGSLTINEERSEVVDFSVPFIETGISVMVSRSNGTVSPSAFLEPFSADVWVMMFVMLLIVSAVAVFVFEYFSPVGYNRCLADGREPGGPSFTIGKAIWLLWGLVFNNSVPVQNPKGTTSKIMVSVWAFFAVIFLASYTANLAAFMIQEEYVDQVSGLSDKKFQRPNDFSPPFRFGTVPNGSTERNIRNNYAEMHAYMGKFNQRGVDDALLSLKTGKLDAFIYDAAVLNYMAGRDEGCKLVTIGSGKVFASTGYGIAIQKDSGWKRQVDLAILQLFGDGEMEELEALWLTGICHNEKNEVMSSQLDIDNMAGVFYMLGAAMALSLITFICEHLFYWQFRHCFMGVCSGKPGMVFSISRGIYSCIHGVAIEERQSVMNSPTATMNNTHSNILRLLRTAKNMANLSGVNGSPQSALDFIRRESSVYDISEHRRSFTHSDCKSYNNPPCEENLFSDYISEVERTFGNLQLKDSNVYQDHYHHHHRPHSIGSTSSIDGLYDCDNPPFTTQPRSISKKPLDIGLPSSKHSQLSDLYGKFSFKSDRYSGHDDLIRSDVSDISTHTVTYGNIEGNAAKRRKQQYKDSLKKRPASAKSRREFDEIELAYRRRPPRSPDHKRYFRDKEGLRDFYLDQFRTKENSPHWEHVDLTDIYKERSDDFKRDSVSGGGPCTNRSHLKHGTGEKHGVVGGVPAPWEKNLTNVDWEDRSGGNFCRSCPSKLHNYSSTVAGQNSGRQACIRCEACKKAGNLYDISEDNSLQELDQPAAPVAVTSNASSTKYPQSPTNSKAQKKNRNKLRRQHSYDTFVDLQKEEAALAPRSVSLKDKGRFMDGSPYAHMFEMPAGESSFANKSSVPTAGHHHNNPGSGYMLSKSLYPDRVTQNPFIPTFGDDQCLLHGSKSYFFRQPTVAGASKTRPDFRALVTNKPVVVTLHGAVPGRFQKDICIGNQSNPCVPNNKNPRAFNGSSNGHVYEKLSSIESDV

GluN1-GluN2B [2] = biological target: T2, GluN1-GluN2B; type: cell-based
GluN1/GluN2A-V820I = biological target: T3, GluN1/GluN2A-V820I (Rattus norvegicus, UniProt P35439+Q00959, V820I); type: cell-based
T3 construct: GFP (N); expressed in transfected cells; host or cells: HEK-293T

GluN1-GluN2A [3] = biological target: T4, GluN1-GluN2A (Rattus norvegicus, UniProt P35439+Q00959); type: cell-based
T4 construct: GFP (N); expressed in transfected cells; host or cells: HEK-293T (single-channel: HEK293)
T4 sequence (Q00959 23-1464, other chains not shown): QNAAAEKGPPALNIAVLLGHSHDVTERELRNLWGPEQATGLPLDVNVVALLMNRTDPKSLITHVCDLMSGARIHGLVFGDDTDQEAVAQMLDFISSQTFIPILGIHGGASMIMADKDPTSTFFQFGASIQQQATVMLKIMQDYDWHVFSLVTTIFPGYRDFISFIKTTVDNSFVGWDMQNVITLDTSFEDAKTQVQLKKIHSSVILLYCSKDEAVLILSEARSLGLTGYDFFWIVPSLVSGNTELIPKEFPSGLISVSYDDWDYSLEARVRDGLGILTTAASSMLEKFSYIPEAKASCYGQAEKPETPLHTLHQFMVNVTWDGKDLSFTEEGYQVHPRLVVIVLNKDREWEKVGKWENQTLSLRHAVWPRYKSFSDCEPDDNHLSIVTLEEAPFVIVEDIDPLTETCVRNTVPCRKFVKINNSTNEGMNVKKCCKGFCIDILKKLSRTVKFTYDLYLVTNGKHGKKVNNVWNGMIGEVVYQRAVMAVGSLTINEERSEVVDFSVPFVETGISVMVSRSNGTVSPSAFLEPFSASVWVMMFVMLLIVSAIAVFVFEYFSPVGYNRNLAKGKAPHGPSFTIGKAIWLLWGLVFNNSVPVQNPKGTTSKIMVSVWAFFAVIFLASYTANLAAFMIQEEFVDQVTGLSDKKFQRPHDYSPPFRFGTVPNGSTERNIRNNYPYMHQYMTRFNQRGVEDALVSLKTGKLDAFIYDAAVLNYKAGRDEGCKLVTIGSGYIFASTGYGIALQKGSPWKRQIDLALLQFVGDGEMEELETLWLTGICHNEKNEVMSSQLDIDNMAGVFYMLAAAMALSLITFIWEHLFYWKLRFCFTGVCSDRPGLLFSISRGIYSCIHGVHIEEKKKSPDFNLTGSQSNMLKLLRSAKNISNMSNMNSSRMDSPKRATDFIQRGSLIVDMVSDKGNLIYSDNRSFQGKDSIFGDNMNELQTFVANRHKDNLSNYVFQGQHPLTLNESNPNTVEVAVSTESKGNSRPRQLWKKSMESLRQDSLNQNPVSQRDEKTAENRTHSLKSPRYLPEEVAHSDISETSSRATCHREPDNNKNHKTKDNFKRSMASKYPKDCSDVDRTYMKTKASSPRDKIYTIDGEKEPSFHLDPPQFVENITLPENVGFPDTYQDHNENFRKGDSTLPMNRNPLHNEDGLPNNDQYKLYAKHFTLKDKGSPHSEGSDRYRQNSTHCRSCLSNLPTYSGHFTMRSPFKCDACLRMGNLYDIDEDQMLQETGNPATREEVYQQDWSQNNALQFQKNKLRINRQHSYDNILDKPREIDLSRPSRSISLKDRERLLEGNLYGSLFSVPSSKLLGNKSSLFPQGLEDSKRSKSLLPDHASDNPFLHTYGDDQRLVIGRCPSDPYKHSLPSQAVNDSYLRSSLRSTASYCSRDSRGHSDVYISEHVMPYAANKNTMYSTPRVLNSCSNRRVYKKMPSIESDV

GluN1-GluN2B [4] = biological target: T2, GluN1-GluN2B; type: cell-based; remark: listed apart in the source
GluN1-GluN2C = biological target: T5, GluN1-GluN2C (Rattus norvegicus, UniProt P35439+Q00961); type: cell-based
T5 construct: HA (N); expressed in transfected cells; host or cells: HEK-293T
T5 sequence (Q00961 20-1237, other chains not shown): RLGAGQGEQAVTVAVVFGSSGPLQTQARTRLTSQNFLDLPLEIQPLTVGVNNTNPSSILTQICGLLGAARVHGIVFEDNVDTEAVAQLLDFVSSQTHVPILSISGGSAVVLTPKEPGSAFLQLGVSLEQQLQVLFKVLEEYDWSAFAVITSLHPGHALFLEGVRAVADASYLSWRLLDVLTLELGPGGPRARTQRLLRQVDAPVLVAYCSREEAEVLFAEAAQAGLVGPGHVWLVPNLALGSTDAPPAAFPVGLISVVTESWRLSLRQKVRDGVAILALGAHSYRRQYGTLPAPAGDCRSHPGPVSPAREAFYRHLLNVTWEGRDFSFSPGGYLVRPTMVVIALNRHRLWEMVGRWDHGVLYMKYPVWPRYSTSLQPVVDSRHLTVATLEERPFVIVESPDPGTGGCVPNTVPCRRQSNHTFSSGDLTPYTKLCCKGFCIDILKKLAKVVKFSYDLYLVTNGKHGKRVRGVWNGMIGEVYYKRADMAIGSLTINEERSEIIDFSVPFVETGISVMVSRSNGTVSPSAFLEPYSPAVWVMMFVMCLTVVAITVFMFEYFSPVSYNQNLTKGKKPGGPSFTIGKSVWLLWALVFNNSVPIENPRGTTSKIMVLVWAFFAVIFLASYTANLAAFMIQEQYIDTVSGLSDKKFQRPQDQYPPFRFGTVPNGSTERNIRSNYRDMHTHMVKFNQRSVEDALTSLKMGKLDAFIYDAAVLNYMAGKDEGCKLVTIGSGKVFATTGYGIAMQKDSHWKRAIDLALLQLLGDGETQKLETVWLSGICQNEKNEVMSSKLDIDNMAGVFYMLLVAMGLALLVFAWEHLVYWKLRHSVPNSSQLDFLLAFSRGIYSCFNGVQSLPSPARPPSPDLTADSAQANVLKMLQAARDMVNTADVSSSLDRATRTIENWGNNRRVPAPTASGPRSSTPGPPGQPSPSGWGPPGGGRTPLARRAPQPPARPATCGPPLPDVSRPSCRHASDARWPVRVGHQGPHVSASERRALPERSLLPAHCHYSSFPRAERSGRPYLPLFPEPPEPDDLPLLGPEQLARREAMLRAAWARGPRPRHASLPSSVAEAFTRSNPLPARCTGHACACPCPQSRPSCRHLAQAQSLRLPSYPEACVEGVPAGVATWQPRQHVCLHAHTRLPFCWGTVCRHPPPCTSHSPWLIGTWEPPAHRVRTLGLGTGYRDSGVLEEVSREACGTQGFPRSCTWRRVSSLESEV

GluN1-GluN2A [5] = biological target: T4, GluN1-GluN2A; type: cell-based; remark: listed apart in the source
GluN1-GluN2A [6] = biological target: T4, GluN1-GluN2A; assay: cell-based

KLGMRSELQIDNDQDAD [EAR-20] was tested, and the peak current potentiation (GluN1-GluN2D) was 4.97% ± 2.63%, the steady-state current potentiation (GluN1-GluN2D) was 102.45% ± 11.1% and the EC50 (GluN1-GluN2B [1]) was 42.2 µM. For the same sequence, the peak current potentiation (GluN1-GluN2B [2]) was 102.6% ± 24.02%, the “potentiation by EAR-20” value (GluN1-GluN2B [2]) was 136.8% ± 19.6% and the steady-state current potentiation (GluN1-GluN2B [2]) was 137.9% ± 21.0% and 137.9% and 143.7% ± 26.8%. For the same sequence, the steady-state potentiation (GluN1/GluN2A-V820I) was 146.6% ± 37.8%, the “agonistic activity relative to glutamate plus glycine” value (GluN1-GluN2A [3]) was 13.31% ± 6.5% and the “maximal agonist activity relative to glutamate plus glycine” value (GluN1-GluN2B [4]) was 12.18% ± 6.9%. For the same sequence, the “response in the presence of glutamate, % of glutamate plus glycine response” value (GluN1-GluN2B [4]) was 38.33% ± 17.1%, the “response in the presence of glycine, % of glutamate plus glycine response” value (GluN1-GluN2B [4]) was 43.22% ± 18.1% and the peak current potentiation (GluN1-GluN2C) was −8.04% ± 7.48%. For the same sequence, the steady-state current potentiation (GluN1-GluN2C) was 23.31% ± 7.6% and ~25%, the peak current potentiation (GluN1-GluN2A [5]) was 15.68% ± 6.19% and 15.68% ± 6.16% and the steady-state current potentiation (GluN1-GluN2A [5]) was 154.3% ± 19.0% and 154.3% and 153.3% ± 19.9%. The EC50 (GluN1-GluN2A [6]) was 88.7 µM.
